Patent US20110244506A1, “EGFR DEPENDENT MODULATION OF CHEMOKINE EXPRESSION AND INFLUENCE ON THERAPY AND DIAGNOSIS OF TUMORS AND SIDE EFFECTS THEREOF” (Merck Patent GmbH, priority 2005, published 2011)

Legend:
[1] = tested on: COX-2; test: Western blotting of COX-2 protein in keratinocytes; assay type: cell-based; details: with or without TGFa or TNFa, 24 h
Experimental: (§1) In these experiments keratinocytes were treated with different concentrations of anti-EGFR inhibitors followed by treatment with or without TGF alpha or TNF alpha for, approximately, 24 h. Effects of anti-EGFR inhibitors were evaluated using Western blotting.
(§2) After 24 h, cells were lysed and analysed by Western blotting.

[2] = tested on: STAT3; test: Western blotting of STAT3 phosphorylation in keratinocytes; assay type: cell-based; details: with or without TGFa or TNFa, 24 h
Experimental: as §1, §2

[3] = tested on: IL-8, keratinocytes; test: Secreted IL-8 levels in keratinocytes (Luminex); assay type: cell-based; details: with or without TGFa or TNFa, 24 h, supernatant
Experimental: (§3) Evaluations were carried out with the Luminex bead technology. In these experiments keratinocytes were treated with anti-EGFR inihibitors followed by treatment with or without TGF alpha or TNF alpha.
(§4) After 24 h, cellular supernatants were collected and levels of IL-8 were quantified using the Luminex technology.

[4] = tested on: RANTES, keratinocytes; test: Secreted RANTES levels in keratinocytes (Luminex); assay type: cell-based; details: with or without TGFa or TNFa, 24 h, supernatant
Experimental: as §3
(§5) After 24 h, cellular supernatants were collected and levels of RANTES were quantified using the Luminex technology.

[5] = tested on: IP-10, keratinocytes; test: Secreted IP-10 levels in keratinocytes (Luminex); assay type: cell-based; details: with or without TGFa or TNFa, 24 h, supernatant
Experimental: as §3
(§6) After 24 h, cellular supernatants were collected and levels of IP-10 were quantified using the Luminex technology.

[6] = tested on: IL-8, A431; test: Secreted IL-8 levels in A431 (Luminex); assay type: cell-based; details: for secreted IL-8 levels: A431, with or without TGFa or TNFa, 24 h, supernatant
Experimental: (§7) Tumor cells were treated with anti-EGFR agents and this was followed by treatment with or without TGF alpha or TNF alpha. Secreted chemokines were evaluated in conditioned medium of tumor cells obtained after 24 h. Evaluation was carried out with the Luminex bead technology.
as §4
(§8) Cells were treated with 100 ng/ml Cmab or Mmab and stimulated with 100 ng/ml TGFa; number of experiments=1

[7] = tested on: RANTES, A431; test: Secreted RANTES levels in A431 (Luminex); assay type: cell-based; details: A431, with or without TGFa or TNFa, 24 h, supernatant
Experimental: as §7, §5

[8] = tested on: IP-10, A431; test: Secreted IP-10 levels in A431 (Luminex); assay type: cell-based; details: A431, with or without TGFa or TNFa, 24 h, supernatant
Experimental: as §7, §6

[9] = tested on: ERK1/2 (Thr 202/204); test: Western blotting of ERK1/2 phosphorylation in keratinocytes; details: with or without TGFa or TNFa, 24 h
[10] = tested on: IL-8, tumor cell lines (DiFi, HT29, A431, MCF-7, PC-3 and U87 MG); test: Secreted IL-8 levels in different tumor cell lines (Luminex); assay type: cell-based; details: stimulated with TGFa, 24 h
Experimental: as §4

[11] = tested on: IL-8, DiFi; test: Secreted IL-8 levels in DiFi (Luminex); assay type: cell-based; details: 100 ng/ml antibody, stimulated with 100 ng/ml TGFa, number of experiments=1
Experimental: as §4, §8

[12] = tested on: IL-8, HT29; test: Secreted IL-8 levels in HT29 (Luminex); assay type: cell-based; details: 100 ng/ml antibody, stimulated with 100 ng/ml TGFa, number of experiments=1
Experimental: as §4, §8

[13] = tested on: IL-8, MCF-7; test: Secreted IL-8 levels in MCF-7 (Luminex); assay type: cell-based; details: 100 ng/ml antibody, stimulated with 100 ng/ml TGFa, number of experiments=1
Experimental: as §4, §8

[14] = tested on: IL-8, PC-3; test: Secreted IL-8 levels in PC-3 (Luminex); assay type: cell-based; details: 100 ng/ml antibody, stimulated with 100 ng/ml TGFa, number of experiments=1
Experimental: as §4, §8

[15] = tested on: IL-8, U87MG; test: Secreted IL-8 levels in U87MG (Luminex); assay type: cell-based; details: 100 ng/ml antibody, stimulated with 100 ng/ml TGFa, number of experiments=1
Experimental: as §4, §8

[16] = tested on: EGFR-dependent signaling cascades, tumor cell lines such as A431; test: EGFR-dependent signaling cascades in tumor cell lines; assay type: cell-based; details: various tumor cell lines such as A431
[17] = molecular target: EGFR (Tyr 1068) (Homo sapiens, UniProt P00533); test: Western blotting of EGFR phosphorylation in keratinocytes; details: with or without TGFa or TNFa, 24 h

| Compound | expression of COX-2 [1] | phosphorylation of STAT3 [2] | secreted IL-8 levels [3] | secreted RANTES levels [4] | secreted IP-10 levels [5] | secreted IL-8 levels [6] | secreted RANTES levels [7] | secreted IP-10 levels [8] | phosphorylation of ERK1/2 (Thr 202/204) [9] | IL-8 levels ([6]; A431, 100 ng/ml antibody, stimulated with 100 ng/ml TGFa, number of experiments=1) [% control] | secreted IL-8 levels [10] | IL-8 levels [11] [% control] | IL-8 levels [12] [% control] | IL-8 levels [13] [% control] | IL-8 levels [14] [% control] | IL-8 levels [15] [% control] | EGFR-dependent signaling cascades [16] | phosphorylation of EGFR (Tyr 1068) [17] |
| --- | --- | --- | --- | --- | --- | --- | --- | --- | --- | --- | --- | --- | --- | --- | --- | --- | --- | --- |
| COc1cc2ncnc(Nc3ccc(F)c(Cl)c3)c2cc1OCCCN1CCOCC1 [Iressa, gefitinib, reference compound] | induced expression of COX-2 | prevented phosphorylation of STAT3 | down-regulated IL-8 in a dose-dependent manner | up-regulated RANTES in a dose-dependent manner | up-regulated IP-10 in a dose-dependent manner | down-regulated IL-8 in a dose-dependent manner | up-regulated RANTES in a dose-dependent manner | up-regulated IP-10 in a dose-dependent manner | prevented phosphorylation | – | – | – | – | – | – | – | – | – |
| Matuzumab: humanized monoclonal antibody 425 directed to the EGF receptor | induced expression of COX-2 | prevented phosphorylation of STAT3 | down-regulated IL-8 in a dose-dependent manner | up-regulated RANTES in a dose-dependent manner | up-regulated IP-10 in a dose-dependent manner | down-regulated IL-8 in a dose-dependent manner | up-regulated RANTES in a dose-dependent manner | up-regulated IP-10 in a dose-dependent manner | prevented phosphorylation | 15 | down-regulated IL-8 in all tumor cell lines investigated in a dose-dependent manner | 28 | 30 | 49 | 76 | 58 | interferes with EGFR-dependent signaling cascades | prevented phosphorylation |
